Measurements as given in patent US20160075653A1, “NEMATICIDAL N-(PHENYLCYCLOALKYL)CARBOXAMIDES AND N-(PHENYLCYCLOALKYL)THIOCARBOXAMIDES” (BAYER CROPSCIENCE AKTIENGESELLSCHAFT, priority 2013, published 2016).
Like-named read-outs stand apart in the source and are kept apart here.

How the values were obtained:
Meloidogyne incognita = Meloidogyne incognita test (MELGIN), gall formation on salad seedlings; type: in vivo; settings: application rate 20 ppm, after 14 days
Description: Meioidovnve incomita—Test (MELGIN)
Solvent: 125.0 parts by weight of acetone
To produce a suitable preparation of active compound, 1 part by weight of active compound is mixed with the stated amount of solvent, and the concentrate is diluted with water to the desired concentration.
Vessels are filled with sand, a solution of the active ingredient, a suspension containing eggs and larvae of the southern root-knot nematode (Meloidogyne incognita) and salad seeds. The salad seeds germinate and the seedlings grow. Galls develop in the roots.
After 14 days the nematicidal activity is determined on the basis of the percentage of gall formation. 100% means that no galls were found; 0% means the number of galls found on the roots of the treated plants was equal to that in untreated control plants.

[1] = Measurement of log P values by HPLC on reversed phase columns (methods [a] pH 2.3, [b] pH 2.7, [c] pH 7.8); type: physicochemical; settings: for chromatographic logP: reversed phase HPLC columns
In short: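 Retention times were converted to log P by linear interpolation between linear alkan-2-one standards (3 to 16 carbons) of known log P. Eluents, each with 10% to 95% acetonitrile gradient: phosphoric acid 0.1% at pH 2.3 [a]; formic acid 0.1% at pH 2.7, LC-MS [b]; ammonium hydrogen carbonate 0.001 molar at pH 7.8, LC-MS [c].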

[2] = HPLC reversed phase, method [b] (pH 2.7)
[3] = HPLC on reversed phase column, method [b], pH 2.7
[4] = HPLC on reversed phase column, method [c], pH 7.8
[5] = HPLC reversed phase, method [c] pH 7.8
[6] = method [b], HPLC reversed phase, pH 2.7
[7] = HPLC on reversed phase columns, method [b], pH 2.7

Row | SMILES | nematicidal activity (percentage of gall formation; 100% = no galls) (Meloidogyne incognita) [%] | logP [1, 2] | further results
1 | O=C(NC1CCC1c1ccc(F)cc1C(F)(F)F)c1sccc1I (centres unmarked) [Compound 520] | 100 | 3.82^[b] | 
2 | O=C(N[C@@H]1CC[C@@H]1c1cccc(F)c1C(F)(F)F)c1ccccc1C(F)(F)F (relative stereo) [Compound 589] | 100 | 3.38^[b] | 
3 | O=C(NC1CC1c1ccc(Cl)cc1Cl)c1ccccc1C(F)(F)F (centres unmarked) [Compound 424] | 100 | 3.46^[b] | 
4 | O=C(N[C@@H]1CC[C@@H]1c1cc(F)ccc1C(F)(F)F)c1cccnc1C(F)(F)F (relative stereo) [Compound 572] | 100 | 3.06^[b] | 
5 | O=C(N[C@@H]1CC[C@@H]1c1cc(F)ccc1C(F)(F)F)c1ccccc1Cl (relative stereo) [Compound 528] | 100 | 3.34^[b] | 
6 | O=C(N[C@@H]1CC[C@@H]1c1cc(F)ccc1C(F)(F)F)c1sccc1I (relative stereo) [Compound 570] | 100 | 3.79^[b] | 
7 | O=C(NC1CCC1c1cc(F)ccc1C(F)(F)F)c1cccc(Cl)c1 (centres unmarked) [Compound 517] | 100 | 3.65^[b] | 
8 | O=C(N[C@H]1CCC1c1c(F)cccc1F)c1cccnc1C(F)(F)F (stereo in doubt) [Compound 236, cis-N-[2-(2,6-difluorophenyl)cyclobutyl]-2-(trifluoromethyl)nicotinamide] | 100 |  | chromatographic logP ([1]; HPLC-MS, method letter not given, read-out: log P): 2.6; chromatographic logP ([1]; pH 2.7, method [b], HPLC reversed phase, pH 2.7, read-out: logP): 2.6
9 | O=C(N[C@@H]1CC[C@H]1c1cccc(F)c1C(F)(F)F)c1cccnc1C(F)(F)F (relative stereo) [Compound 642] | 90 |  | logP [1, 3]: 3.15^[b]
10 | O=C(N[C@@H]1CC[C@@H]1c1cccc(F)c1C(F)(F)F)c1ccccc1[N+](=O)[O-] (relative stereo) [Compound 630] | 100 |  | logP [1, 3]: 2.94^[b]
11 | O=C(NC1CCCC1c1ccccc1Br)c1cccnc1C(F)(F)F (centres unmarked) [Compound 346] | 100 | 3.13^[b] | 
12 | O=C(N[C@@H]1CC[C@@H]1c1cc(F)ccc1C(F)(F)F)c1ccccc1C(F)(F)F (relative stereo) [Compound 586] | 100 | 3.53^[b] | 
13 | O=C(N[C@@H]1CC[C@@H]1c1ccccc1Cl)c1ccccc1[N+](=O)[O-] (relative stereo) [Compound 538] | 100 | 2.71^[b] | 
14 | O=C(N[C@@H]1CC[C@H]1c1ccccc1Cl)c1nccnc1Cl (relative stereo) [Compound 548] | 100 | 2.81^[b] | 
15 | O=C(N[C@@H]1CC[C@@H]1c1cccc(F)c1C(F)(F)F)c1nccnc1Cl (relative stereo) [Compound 645] | 100 |  | logP [1, 3]: 2.78^[b]
16 | Cc1occc1C(=O)N[C@@H]1C[C@@H]1c1ccc(Cl)cc1Cl (relative stereo) [Compound 611] | 90 |  | logP [1, 3]: 3.02^[b]; logP [1, 4]: 2.89^[c];
17 | O=C(NC1CC1c1ccc(Cl)cc1)c1ncccc1C(F)(F)F (centres unmarked) [Compound 462] | 100 | 2.85^[b] | logP [1, 5]: 2.81^[c];
18 | O=C(N[C@@H]1CC[C@@H]1c1cccc(F)c1C(F)(F)F)c1ccccc1Cl (relative stereo) [Compound 601] | 100 |  | logP [1, 3]: 3.23^[b]
19 | O=C(NC1CC1c1ccc(Cl)cc1)c1cccnc1C(F)F (centres unmarked) [Compound 465] | 100 | 2.15^[b] | logP [1, 5]: 2.14^[c];
20 | O=C(NC1CCC1c1ccccc1C(F)(F)F)c1ncccc1Cl (centres unmarked) [Compound 215] | 90 |  | logP [1, 6]: 3.01^[b]
21 | O=C(N[C@@H]1C[C@@H]1c1ccc(Cl)cc1Cl)c1ncccc1Br (relative stereo) [Compound 608] | 100 |  | logP [1, 3]: 2.98^[b]; logP [1, 4]: 2.99^[c];
22 | O=C(N[C@@H]1CC[C@@H]1c1ccc(F)cc1C(F)(F)F)c1cccnc1Cl (relative stereo) [Compound 515] | 100 | 2.73^[b] | 

Row | SMILES | nematicidal activity (percentage of gall formation; 100% = no galls) (Meloidogyne incognita) [%] | logP [1, 2] | further results
23 | O=C(N[C@@H]1C[C@@H]1c1ccc(Cl)cc1Cl)c1nccnc1Cl (relative stereo) [Compound 567] | 90 | 2.75^[b] | 
24 | O=C(NC1CCCC1c1ccc(Cl)cc1Cl)c1cccnc1C(F)(F)F (centres unmarked) [Compound 358] | 100 | 3.54^[b] | 
25 | CCOc1ccccc1C(=O)N[C@@H]1CCC[C@@H]1c1ccc(F)c(F)c1 (relative stereo) [Compound 115] | 90 |  | logP [1, 7]: 3.80^[b]
26 | O=C(N[C@@H]1CC[C@@H]1c1ccc(F)cc1C(F)(F)F)c1ccccc1I (relative stereo) [Compound 503] | 100 | 3.50^[b] | 
27 | O=C(NC1CCC1c1ccccc1C(F)(F)F)c1c(F)cccc1F (centres unmarked) [Compound 430] | 100 | 3.09^[b] | 
28 | O=C(N[C@@H]1CC[C@@H]1c1c(F)cccc1C(F)(F)F)c1ccccc1C(F)(F)F (relative stereo) [Compound 585] | 100 | 3.60^[b] | 
29 | O=C(NC1CCC1c1c(F)cccc1F)c1ccccc1Cl (centres unmarked) [Compound 443] | 90 | 2.97^[b] | 
30 | O=C(NC1CCC1c1ccc(Cl)cc1Cl)c1ccccc1C(F)(F)F (centres unmarked) [Compound 476] | 90 | 3.72^[b] | 
31 | O=C(N[C@@H]1CC[C@@H]1c1cccc(F)c1C(F)(F)F)c1ccccc1 (relative stereo) [Compound 592] | 100 |  | logP [1, 3]: 3.01^[b]
32 | O=C(N[C@@H]1CC[C@@H]1c1cc(F)ccc1C(F)(F)F)c1ccccc1Br (relative stereo) [Compound 560] | 100 | 3.38^[b] | 
33 | O=C(N[C@@H]1CC[C@@H]1c1c(F)cccc1C(F)(F)F)c1ccccc1Cl (relative stereo) [Compound 553] | 100 | 3.42^[b] | 
34 | O=C(NC1CCC1c1ccccc1C(F)(F)F)c1ccccc1Br (centres unmarked) [Compound 216] | 100 |  | logP [1, 6]: 3.32^[b]
35 | O=C(N[C@@H]1CC[C@@H]1c1ccc(F)cc1C(F)(F)F)c1c(F)cccc1F (relative stereo) [Compound 493] | 100 | 3.18^[b] | 
36 | O=C(NC1CCC1c1ccccc1C(F)(F)F)c1nccnc1C(F)(F)F (centres unmarked) [Compound 684] | 100 |  | logP [1, 3]: 3.15^[b]; logP [1, 4]: 3.10^[c];
37 | CSc1ccccc1C(=O)N[C@@H]1CCC[C@@H]1c1ccc(F)c(F)c1 (relative stereo) [Compound 82] | 90 |  | logP [1, 7]: 3.35^[b]
38 | O=C(N[C@@H]1CC[C@@H]1c1ccccc1Cl)c1ccccc1I (relative stereo) [Compound 250] | 100 | 3.23^[b] | 
39 | O=C(N[C@@H]1CC[C@H]1c1ccc(F)cc1C(F)(F)F)c1ccccc1C(F)(F)F (relative stereo) [Compound 494] | 90 | 3.72^[b] | 
40 | O=C(N[C@@H]1CC[C@@H]1c1ccccc1Cl)c1ccccc1Br (relative stereo) [Compound 253] | 100 | 3.18^[b] | 
41 | O=C(N[C@@H]1CC[C@@H]1c1c(F)cccc1C(F)(F)F)c1ccccc1[N+](=O)[O-] (relative stereo) [Compound 561] | 100 | 3.03^[b] | 
42 | O=C(NC1CC1c1ccc(Cl)cc1Cl)c1occc1Br (centres unmarked) [Compound 214] | 100 |  | logP [1, 6]: 3.56^[b]; logP ([1]; method [c], HPLC reversed phase, pH 7.8): 3.44^[c];
43 | O=C(NC1CCCC1c1ccccc1Br)c1ccccc1Cl (centres unmarked) [Compound 349] | 90 | 3.52^[b] | 
44 | O=C(N[C@@H]1CC[C@@H]1c1c(F)cccc1C(F)(F)F)c1c(F)cccc1F (relative stereo) [Compound 564] | 100 | 3.25^[b] | 
